# Reference: patent publication US20170055524A1, “Aqueous Adjuvant Composition For Increasing The Efficacy Of Electrolyte Active Substances” (priority 2014, published 2017)
# Experiments:
# apple leaf cuticles [1] = experiment: Membrane penetration test, penetration of 2,4-D DMA with antagonistic calcium; assay type: in vitro ADME; details: 2,4-D DMA alone, 5 g/L ai; 177 ppm Ca; 25° C./56% rel. air humidity
# Protocol: (§1) The potential of the C8/10 glucamide, which is independent of the surfactant action, to promote foliar absorption of active agrochemical ingredients was determined in membrane penetration tests with apple or pear leaf cuticles. […] The stomata-free cuticles were first dried under air and then installed into stainless steel diffusion cells. After application to the original upper side of the leaf and evaporation of the test liquid, i.e. of the aqueous preparations of the active ingredients without or with the C8/10-glucamide-containing spray liquids or comparative compositions, the diffusion cells were transferred into thermostatted blocks and charged with aqueous liquid. The water used to make up the aqueous test liquids was local tap water (of known composition). At regular intervals, samples were taken and, irrespective of the test system, the proportion of active ingredient penetrated was determined either by HPLC or scintillation measurement. […] In all other HPLC variants, only an aliquot was taken. During the experiment, the temperature in the system (block, diffusion cells, liquids, etc.) and the air humidity above the spray coating on the cuticle were known exactly and were monitored. […] The analytical determination was effected either by means of HPLC (1290 Infinity, Agilent) or analysis of radioactivity (Tricarb, Perkin Elmer). […]
# apple leaf cuticles [2] = experiment: Membrane penetration test, penetration of dicamba (acid); details: dicamba (acid) alone, 1.0 g/L ai; normal tap water (85 ppm Ca); 20° C./60% rel. air humidity
# Source text: The stomata-free cuticles were first dried under air and then installed into stainless steel diffusion cells. […] The water used to make up the aqueous test liquids was local tap water (of known composition). […] In each case, the geometric mean values of the penetration for intact membranes at the mean measurement times are given.
# apple leaf cuticles [3] = experiment: Membrane penetration test, penetration of MCPA (potassium salt); assay type: in vitro ADME; details: MCPA potassium alone, 1.0 g/L ai in spray liquid; 25° C./56% rel. air humidity
# Protocol: as §1
# apple leaf cuticles [4] = experiment: Membrane penetration test, penetration of sulcotrione; assay type: in vitro ADME; details: sulcotrione alone, 0.2 g/L ai; 20° C./60% rel. air humidity
# Protocol: as §1
smiles,measurement,setting,value
"CNC.O=C(O)COc1ccc(Cl)cc1Cl [2,4-D DMA, 2,4-D]","Mean penetration of 2,4-D DMA after 4 h",apple leaf cuticles [1],0.2%
same,"Mean penetration of 2,4-D DMA after 1 day",apple leaf cuticles [1],0.3%
"COc1c(Cl)ccc(Cl)c1C(=O)O [Dicamba (acid), dicamba]",Mean penetration of dicamba (acid) after 5 h,apple leaf cuticles [2],4.4%
same,Mean penetration of dicamba (acid) after 1 day,apple leaf cuticles [2],12.4%
"Cc1cc(Cl)ccc1OCC(=O)[O-].[K+] [MCPA potassium, MCPA]",Mean penetration of MCPA (potassium salt) after 4 h,apple leaf cuticles [3],1.6%
same,Mean penetration of MCPA (potassium salt) after 1 day,apple leaf cuticles [3],7.2%
"CS(=O)(=O)c1ccc(C(=O)C2C(=O)CCCC2=O)c(Cl)c1 [Sulcotrione, sulcotrione]",Mean penetration of sulcotrione after 5 h,apple leaf cuticles [4],<1%
same,Mean penetration of sulcotrione after 1 day,apple leaf cuticles [4],<1%
